One test concerns MCF-7. Kind of test: Cytotoxicity assay (SRB), MCF-7. The test is classed as cell-based. The following applies: Homo sapiens, MCF7, 72 h, MCF-7 cells, SRB, read-out: In Vitro Cellular Activity IC50 MCF-7. A digest of the protocol: (§1)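 Growth inhibition, SRB method: 3-day continuous compound exposure for HCT-116, LoVo and MCF-7 and 6-day exposure for BT474. Absorbance at 540 nm reflects surviving cell protein relative to controls.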

The next test addresses T1, cyclin B/CDK1 enzyme (Homo sapiens, UniProt P06493).
T1 construct: purchased New England BioLabs; host or cells: Sf9 insect cells, recombinant baculovirus
As to the kind of experiment: CDK1 ELISA kinase assay (phospho-Rb ser 795 detection). The test is classed as biochemical. The method, boiled down:
(§2)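 ELISA format: plate-bound GST-Rb, 200 μM ATP, Sf9 cyclin/CDK enzyme, 1 h at 30° C; then anti-pRb Ser795 primary overnight at 4° C, HRP secondary, TMB. IC50 after no-substrate background subtraction.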
Background: An ELISA detects its analyte on a solid surface through an enzyme-linked reagent.

The test system of another test is LoVo. As to the kind of experiment: Cytotoxicity assay (SRB), LoVo. The following applies: Homo sapiens, LoVo, 72 h, LoVo cells, SRB, read-out: In Vitro Cellular Activity IC50 LOVO. In kind it is cell-based. The method, boiled down: as §1
Another test relates to BT474. Kind of test: Cytotoxicity assay (SRB), BT474. The test is classed as cell-based. The method, boiled down: as §1
The subject of a further test is HCT-116. Kind of test: Cytotoxicity assay (SRB), HCT-116. In kind it is cell-based. To be noted: Homo sapiens, HCT-116, 72 h, HCT116 cells, SRB, read-out: In Vitro Cellular Activity IC50 HCT116. The method, boiled down:
as §1

The next test concerns the target T2, cyclin D1/cdk 4 enzyme (Homo sapiens, UniProt P11802).
T2 construct: made in house; host or cells: Sf9 insect cells, recombinant baculovirus
Kind of test: CDK4 ELISA kinase assay (phospho-Rb ser 795 detection). The test is classed as biochemical. A digest of the protocol: as §2

The target of a further test is T3, cyclin E/CDK2 enzyme (Homo sapiens, UniProt P24941).
T3 construct: made in house; host or cells: Sf9 insect cells, recombinant baculovirus
As to the kind of experiment: CDK2 ELISA kinase assay (phospho-Rb ser 795 detection). The test is classed as biochemical. The method, boiled down: as §2

[1] abbreviates: In Vitro Enzyme Assays, read-out: CDK1 IC50.
Setting [2] is: Homo sapiens, BT-474, 144 h, BT474 cells, SRB, 6 days; read-out: In Vitro Cellular Activity IC50 BT474.
The mark [3] stands for this setting: In Vitro Enzyme Assays, 200 μM ATP, read-out: CDK4 IC50.
Setting [4] is: In Vitro Enzyme Assays, read-out: CDK2 IC50.
Where [5] appears, read: In Vitro Enzyme Assay, cyclin B/CDK1, read-out: CDK1 IC50.
[6] abbreviates: Homo sapiens, BT-474, 144 h, BT474 cells, 6 days, SRB; read-out: In Vitro Cellular Activity IC50 BT474.
The mark [7] stands for this setting: In Vitro Enzyme Assay, cyclin D1/cdk 4, read-out: CDK4 IC50.
Setting [8] is: In Vitro Enzyme Assay, cyclin E/CDK2, read-out: CDK2 IC50.

The values below come from patent publication US7713994B2 (Wyeth LLC, priority 2005, dated 2010).

By IC50 is commonly meant the midpoint of a concentration-inhibition curve.

Where two headings read alike, the source gives them in different places.

T1 sequence (P06493 whole entry): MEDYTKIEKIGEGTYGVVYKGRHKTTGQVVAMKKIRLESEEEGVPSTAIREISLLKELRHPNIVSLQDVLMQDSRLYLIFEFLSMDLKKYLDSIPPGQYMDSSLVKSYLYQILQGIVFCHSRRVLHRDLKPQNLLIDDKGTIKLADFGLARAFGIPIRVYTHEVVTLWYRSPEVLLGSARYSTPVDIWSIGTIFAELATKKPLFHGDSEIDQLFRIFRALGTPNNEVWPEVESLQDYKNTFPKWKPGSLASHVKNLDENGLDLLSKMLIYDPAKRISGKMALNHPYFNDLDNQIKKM
T1 sequence (P14635 whole entry partner): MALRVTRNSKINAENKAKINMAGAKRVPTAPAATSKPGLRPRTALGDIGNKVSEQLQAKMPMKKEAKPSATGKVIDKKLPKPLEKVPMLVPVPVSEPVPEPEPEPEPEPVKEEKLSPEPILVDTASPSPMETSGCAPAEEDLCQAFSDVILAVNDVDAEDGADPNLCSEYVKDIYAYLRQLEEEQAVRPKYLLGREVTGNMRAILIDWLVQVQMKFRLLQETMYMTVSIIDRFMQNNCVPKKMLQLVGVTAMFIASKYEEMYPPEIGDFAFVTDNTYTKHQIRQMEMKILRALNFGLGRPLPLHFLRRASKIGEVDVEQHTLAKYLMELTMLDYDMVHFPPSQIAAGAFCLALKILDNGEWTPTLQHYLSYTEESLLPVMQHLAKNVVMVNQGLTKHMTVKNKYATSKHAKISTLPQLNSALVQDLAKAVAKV
T2 sequence (P11802 whole entry, species assumed): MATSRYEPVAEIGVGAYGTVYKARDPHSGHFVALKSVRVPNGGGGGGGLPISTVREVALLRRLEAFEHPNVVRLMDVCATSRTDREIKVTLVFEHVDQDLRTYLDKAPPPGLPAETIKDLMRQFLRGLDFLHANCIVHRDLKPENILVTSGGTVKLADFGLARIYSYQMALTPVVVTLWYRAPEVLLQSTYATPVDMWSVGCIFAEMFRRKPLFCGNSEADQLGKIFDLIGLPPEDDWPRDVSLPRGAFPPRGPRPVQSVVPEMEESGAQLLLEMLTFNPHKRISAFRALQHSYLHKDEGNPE
T2 sequence (P24385 whole entry partner, species assumed): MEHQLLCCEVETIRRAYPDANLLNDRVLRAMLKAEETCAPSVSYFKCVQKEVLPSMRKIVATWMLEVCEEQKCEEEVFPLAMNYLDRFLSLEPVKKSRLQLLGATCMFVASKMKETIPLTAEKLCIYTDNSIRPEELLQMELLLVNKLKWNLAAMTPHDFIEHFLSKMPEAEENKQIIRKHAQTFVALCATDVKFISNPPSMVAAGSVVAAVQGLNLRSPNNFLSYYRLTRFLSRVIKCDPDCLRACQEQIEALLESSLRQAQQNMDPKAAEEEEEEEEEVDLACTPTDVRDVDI

As for `O=C1NC(=O)c2ccc(-c3ccco3)cc2C1=CNc1ccc(CN2CCCC2)cc1` [Example 169, 6-Furan-2-yl-4-[(4-pyrrolidin-1-ylmethyl-phenylamino)-methylene]-4H-isoquinoline-1,3-dione], the IC50 in the test on MCF-7 (three days) is 2.5 µM; on cyclin B/CDK1 enzyme (setting [1]), over 50 µM; in the test with LoVo (three days), 5.2 µM; in the test with BT474 (setting [2]), 1.8 µM; with HCT-116 (three days), 2.6 µM; on cyclin D1/cdk 4 enzyme (setting [3]) it was 0.2 µM. Besides, the IC50 at cyclin E/CDK2 enzyme (setting [4]) was over 50 µM.
`CCCCOc1ccc(CN/C=C2\C(=O)NC(=O)c3ccc(Br)cc32)cc1O` [Example 148, (4Z)-6-Bromo-4-{[(4-butoxy-3-hydroxybenzyl)amino]methylene}isoquinoline-1,3(2H,4H)-dione]: the IC50 in the test on MCF-7 (three days) was 25 µM; at cyclin B/CDK1 enzyme (setting [1]) it was over 50 µM; in the test on LoVo (three days), 22 µM; in the test on BT474 (setting [2]) it was 16 µM; with HCT-116 (three days), 18 µM; at cyclin D1/cdk 4 enzyme (setting [3]), 0.44 µM. Further, at cyclin E/CDK2 enzyme (setting [4]), the IC50 is 31.7 µM.
For `CCN(CC)Cc1ccc(NC=C2C(=O)NC(=O)c3ccccc32)cc1` [Example 574, 4-[(4-Diethylaminomethyl-phenylamino)-methylene]-4H-isoquinoline-1,3-dione], the IC50 in the test with MCF-7 (3 days) stood at 14 µM; on cyclin B/CDK1 enzyme (setting [5]), 18.5 µM; in the test on LoVo (3 days), 29.8 µM; in the test on BT474 (setting [6]) it was 10.6 µM; in the test with HCT-116 (3 days), 10.3 µM; on cyclin D1/cdk 4 enzyme (setting [7]) it was 5.5 µM. For the same compound, on cyclin E/CDK2 enzyme (setting [8]), the IC50 came out at 30.4 µM.
Turning to `COc1ccc(CNC=C2C(=O)NC(=O)c3ccc(-c4ccc[nH]4)cc32)cc1O` [Example 836, 4-[(3-Hydroxy-4-methoxy-benzylamino)-methylene]-6-(1H-pyrrol-2-yl)-4H-isoquinoline-1,3-dione], the IC50 with MCF-7 (3 days) amounted to 17.7 µM; on cyclin B/CDK1 enzyme (setting [5]), 28.3 µM; with LoVo (3 days) it was 6.8 µM; in the test with BT474 (setting [6]), 12.8 µM; in the test on HCT-116 (3 days), 12.7 µM; at cyclin D1/cdk 4 enzyme (setting [7]) it was 0.01 µM. Besides, the IC50 at cyclin E/CDK2 enzyme (setting [8]) was found to be 15.4 µM.
In the case of `CN1CCN(c2ccc(NC=C3C(=O)NC(=O)c4ccc(-c5ccn(CCCC#N)c5)cc43)cc2)CC1` [Example 855, 4-[3-(4-{[4-(4-Methyl-piperazin-1-yl)-phenylamino]-methylene}-1,3-dioxo-1,2,3,4-tetrahydro-isoquinolin-6-yl)-pyrrol-1-yl]-butyronitrile], the IC50 with MCF-7 (3 days) was 42.6 µM; on cyclin B/CDK1 enzyme (setting [5]), over 50 µM; in the test with LoVo (3 days), over 50 µM; in the test on BT474 (setting [6]), 43.3 µM; in the test with HCT-116 (3 days), over 50 µM; on cyclin D1/cdk 4 enzyme (setting [7]), 0.31 µM. Also, the IC50 at cyclin E/CDK2 enzyme (setting [8]) is over 50 µM.
For the compound `CN(C)CCSc1ccc(N/C=C2\C(=O)NC(=O)c3ccc(Br)cc32)cc1` [Example 229, (4Z)-6-Bromo-4-{[(4-{[2-(dimethylamino)ethyl]thio}phenyl)amino]methylene}isoquinoline-1,3(2H,4H)-dione], the IC50 with MCF-7 (three days) was 4.6 µM; on cyclin B/CDK1 enzyme (setting [1]), over 50 µM; in the test on LoVo (three days) it was 8.5 µM; in the test on BT474 (setting [2]), 4 µM; in the test on HCT-116 (three days) it was 3.6 µM; on cyclin D1/cdk 4 enzyme (setting [3]), 0.24 µM. In addition, the IC50 on cyclin E/CDK2 enzyme (setting [4]) was over 50 µM.
Turning to `COc1ccc(CNC=C2C(=O)NC(=O)c3ccc(-c4ccc5[nH]ccc5c4)cc32)cc1O` [Example 835, 4-[(3-Hydroxy-4-methoxy-benzylamino)-methylene]-6-(1H-indol-5-yl)-4H-isoquinoline-1,3-dione], the IC50 in the test on MCF-7 (3 days) was 12.6 µM; at cyclin B/CDK1 enzyme (setting [5]), 35.5 µM; in the test on LoVo (3 days) it was 11.3 µM; in the test on BT474 (setting [6]), 11.7 µM; with HCT-116 (3 days), 10 µM; on cyclin D1/cdk 4 enzyme (setting [7]), 0.04 µM. The IC50 at cyclin E/CDK2 enzyme (setting [8]) is 40.6 µM.
With `COc1ccc(NC=C2C(=O)NCc3cc(-c4cc[nH]c4)ccc32)cc1` [Example 850, 4-[(4-Methoxy-phenylamino)-methylene]-7-(1H-pyrrol-3-yl)-1,4-dihydro-2H-isoquinolin-3-one], the concentration for half-maximal inhibition (IC50) in the test with MCF-7 (3 days) is over 50 µM; on cyclin B/CDK1 enzyme (setting [5]), over 50 µM; with LoVo (3 days), 24.2 µM; with BT474 (setting [6]) it was 46.5 µM; in the test with HCT-116 (3 days), 16 µM; on cyclin D1/cdk 4 enzyme (setting [7]), over 50 µM. For the same compound, the concentration for half-maximal inhibition (IC50) on cyclin E/CDK2 enzyme (setting [8]) came out at 19.7 µM.
Regarding `CC(=O)Nc1ccc(CN/C=C2\C(=O)NC(=O)c3ccc(I)cc32)cc1O` [Example 151, N-[2-Hydroxy-4-({[(Z)-(6-iodo-1,3-dioxo-2,3-dihydroisoquinolin-4(1H)-′ylidene)methyl]amino}methyl)phenyl]acetamide], the IC50 came to 6.6 µM in the test on MCF-7 (three days); 36.4 µM at cyclin B/CDK1 enzyme (setting [1]); 1.9 µM in the test with LoVo (three days); 0.9 µM with BT474 (setting [2]); 1.3 µM in the test with HCT-116 (three days); 0.03 µM on cyclin D1/cdk 4 enzyme (setting [3]). Moreover, on cyclin E/CDK2 enzyme (setting [4]), the IC50 is 1.8 µM.
With `CCCOc1ccc(CN/C=C2\C(=O)NC(=O)c3ccc(Br)cc32)cc1C(N)=O` [Example 353, 5-({[(Z)-(6-Bromo-1,3-dioxo-2,3-dihydroisoquinolin-4(1H)-ylidene)methyl]amino}methyl)-2-propoxybenzamide], the 50% inhibitory concentration (IC50) with MCF-7 (three days) was over 50 µM; on cyclin B/CDK1 enzyme (setting [1]) it was over 50 µM; in the test on LoVo (three days) it was 1 µM; in the test with BT474 (setting [2]) it was 0.67 µM; with HCT-116 (three days), 6.1 µM; at cyclin D1/cdk 4 enzyme (setting [3]) it was over 50 µM. Also, the concentration for half-maximal inhibition (IC50) on cyclin E/CDK2 enzyme (setting [4]) was found to be 31.7 µM.
Regarding `O=C1NC(=O)c2ccc(-c3ccoc3)cc2/C1=C/NCc1ccc(-c2ccccc2)c(O)c1` [Example 494, 6-Furan-3-yl-4-{[(2-hydroxy-biphenyl-4-ylmethyl)-amino]-methylene}-4H-isoquinoline-1,3-dione], the IC50 in the test with MCF-7 (3 days) was 1 µM; at cyclin B/CDK1 enzyme (setting [5]), 42.5 µM; in the test with LoVo (3 days), 0.52 µM; in the test on BT474 (setting [6]) it was 0.53 µM; with HCT-116 (3 days), 0.58 µM; on cyclin D1/cdk 4 enzyme (setting [7]) it was 0.03 µM. For the same compound, at cyclin E/CDK2 enzyme (setting [8]), the IC50 was determined as 18.4 µM.
Regarding `O=C1NC(=O)c2ccc(Br)cc2/C1=C/Nc1ccc(-n2ccnc2)cc1` [Example 869, (4Z)-6-Bromo-4-({[4-(1H-imidazol-1-yl)phenyl]amino}methylene)isoquinoline-1,3(2H,4H)-dione], the IC50 with MCF-7 (3 days) was over 50 µM; at cyclin B/CDK1 enzyme (In Vitro Enzyme Assay, read-out: CDK1 IC50) it was over 50 µM; with LoVo (3 days) it was over 50 µM; in the test on BT474 (setting [6]), over 50 µM; in the test on HCT-116 (3 days) it was 5.4 µM; on cyclin D1/cdk 4 enzyme (In Vitro Enzyme Assay, read-out: CDK4 IC50) it was 22.6 µM. Besides, on cyclin E/CDK2 enzyme (In Vitro Enzyme Assay, read-out: CDK2 IC50), the IC50 amounted to 14.7 µM.
As for `O=C1NC(=O)c2ccc(-c3ccccc3)cc2C1=CNCc1ccc(O)c(O)c1` [Example 620, 4-[(3,4-Dihydroxy-benzylamino)-methylene]-6-phenyl-4H-isoquinoline-1,3-dione], the IC50 in the test on MCF-7 (3 days) turned out to be 11 µM; at cyclin B/CDK1 enzyme (setting [5]) it was 32.5 µM; in the test on LoVo (3 days), 11.5 µM; with BT474 (setting [6]), 15.5 µM; in the test on HCT-116 (3 days), 11.7 µM; at cyclin D1/cdk 4 enzyme (setting [7]), 0.05 µM. Besides, on cyclin E/CDK2 enzyme (setting [8]), the IC50 came to 5.8 µM.
`O=C1NC(=O)c2ccc(Br)cc2/C1=C/NCc1cc(O)ccc1O` [Example 173, (4Z)-6-Bromo-4-{[(2,5-dihydroxybenzyl)amino]methylene}isoquinoline-1,3(2H,4H)-dione]: the IC50 was 12 µM in the test with MCF-7 (three days); over 50 µM at cyclin B/CDK1 enzyme (setting [1]); 17 µM in the test on LoVo (three days); 8.3 µM in the test on BT474 (setting [2]); 11 µM with HCT-116 (three days); 0.11 µM at cyclin D1/cdk 4 enzyme (setting [3]). For the same compound, the IC50 at cyclin E/CDK2 enzyme (setting [4]) stood at 4.7 µM.
As for `CC(CN(C)C)N1CCN(c2ccc(N/C=C3\C(=O)NC(=O)c4ccc(I)cc43)cc2)CC1` (stereo not drawn) [Example 400, (4Z)-4-{[(4-{4-[2-(Dimethylamino)-1-methylethyl]piperazin-1-yl}phenyl)amino]methylene}-6-iodoisoquinoline-1,3(2H,4H)-dione], the IC50 in the test with MCF-7 (3 days) is 8.7 µM; on cyclin B/CDK1 enzyme (setting [1]), over 50 µM; in the test with LoVo (3 days) it was 8.6 µM; in the test on BT474 (setting [6]) it was 9.33 µM; with HCT-116 (3 days) it was 2.9 µM; on cyclin D1/cdk 4 enzyme (setting [3]) it was 0.34 µM. For the same compound, the IC50 at cyclin E/CDK2 enzyme (setting [4]) is over 50 µM.
